Data: ChEMBL document CHEMBL1201862, “PubChem BioAssay data set” (2004)
Calls of active or inactive are those of the source.

Legend:
Format in all cases: functional
[1] = target: T1, Orexin/Hypocretin receptor type 1 (Homo sapiens, UniProt O43613); experiment: Homogeneous Time Resolved Fluorescence (HTRF)-based cell-based high throughput dose response assay for antagonists of the orexin 1 receptor (OX1R; HCRTR1). [Related pubchem assays (depositor defined):AID434989, AID435008, AID463079, AID485270, AID492963, AID492964, AID492965, AID493232, AID504717, AID504718];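 note: antagonism measured against Orexin-A challenge at about its EC80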
T1 sequence (O43613 whole entry): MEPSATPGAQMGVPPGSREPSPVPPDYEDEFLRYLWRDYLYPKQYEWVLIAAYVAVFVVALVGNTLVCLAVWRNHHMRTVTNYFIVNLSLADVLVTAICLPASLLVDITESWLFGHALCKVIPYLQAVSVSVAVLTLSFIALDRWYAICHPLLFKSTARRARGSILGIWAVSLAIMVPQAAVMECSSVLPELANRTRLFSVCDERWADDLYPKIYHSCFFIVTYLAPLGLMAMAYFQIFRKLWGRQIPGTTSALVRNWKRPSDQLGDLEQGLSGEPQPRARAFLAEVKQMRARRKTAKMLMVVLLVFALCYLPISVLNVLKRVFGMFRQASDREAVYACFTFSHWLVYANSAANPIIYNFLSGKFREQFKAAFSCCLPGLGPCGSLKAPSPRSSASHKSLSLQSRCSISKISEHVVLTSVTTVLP

[2] = target: Tyrosine-protein kinase JAK2 (Homo sapiens, UniProt O60674);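 note: JAK2 tested as one member of a kinase panel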
Chain of Tyrosine-protein kinase JAK2 (O60674 whole entry): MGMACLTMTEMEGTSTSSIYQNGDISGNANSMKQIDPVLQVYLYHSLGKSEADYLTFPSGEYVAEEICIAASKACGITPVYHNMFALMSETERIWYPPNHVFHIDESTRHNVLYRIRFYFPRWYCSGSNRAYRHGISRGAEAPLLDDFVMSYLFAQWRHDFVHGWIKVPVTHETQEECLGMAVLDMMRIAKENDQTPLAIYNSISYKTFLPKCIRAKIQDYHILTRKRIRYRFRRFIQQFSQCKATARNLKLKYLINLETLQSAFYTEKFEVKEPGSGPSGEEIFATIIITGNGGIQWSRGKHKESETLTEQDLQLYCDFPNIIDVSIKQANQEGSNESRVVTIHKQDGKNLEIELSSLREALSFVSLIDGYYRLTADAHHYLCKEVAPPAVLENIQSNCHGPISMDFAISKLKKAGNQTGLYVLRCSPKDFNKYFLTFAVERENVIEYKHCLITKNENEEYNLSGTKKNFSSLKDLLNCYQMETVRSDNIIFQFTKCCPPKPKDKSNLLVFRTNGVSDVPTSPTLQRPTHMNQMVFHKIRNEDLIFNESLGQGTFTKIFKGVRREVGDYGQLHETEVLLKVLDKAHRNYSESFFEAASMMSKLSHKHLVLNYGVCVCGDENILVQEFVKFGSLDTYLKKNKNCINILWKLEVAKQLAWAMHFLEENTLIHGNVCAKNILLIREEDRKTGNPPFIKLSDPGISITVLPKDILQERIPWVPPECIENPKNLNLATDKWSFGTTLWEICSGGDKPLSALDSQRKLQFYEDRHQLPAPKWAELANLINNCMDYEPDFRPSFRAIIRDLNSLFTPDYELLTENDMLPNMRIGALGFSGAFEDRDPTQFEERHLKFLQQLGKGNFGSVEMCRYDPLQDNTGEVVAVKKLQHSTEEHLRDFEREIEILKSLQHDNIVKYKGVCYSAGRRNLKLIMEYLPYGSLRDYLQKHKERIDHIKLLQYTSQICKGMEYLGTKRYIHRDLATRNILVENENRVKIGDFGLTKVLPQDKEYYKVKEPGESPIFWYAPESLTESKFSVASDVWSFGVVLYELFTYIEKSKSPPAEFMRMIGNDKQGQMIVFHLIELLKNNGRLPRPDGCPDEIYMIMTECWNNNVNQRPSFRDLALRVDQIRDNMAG

[3] = target: Cyclin-dependent kinase 5 (Homo sapiens, UniProt Q00535);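 note: CDK5 measured as one member of a kinase profiling panel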
[4] = target: Serine/threonine-protein kinase TBK1 (Homo sapiens, UniProt Q9UHD2); experiment: Navigating the Kinome. Panel member name: TBK1
Chain of Serine/threonine-protein kinase TBK1 (Q9UHD2 whole entry): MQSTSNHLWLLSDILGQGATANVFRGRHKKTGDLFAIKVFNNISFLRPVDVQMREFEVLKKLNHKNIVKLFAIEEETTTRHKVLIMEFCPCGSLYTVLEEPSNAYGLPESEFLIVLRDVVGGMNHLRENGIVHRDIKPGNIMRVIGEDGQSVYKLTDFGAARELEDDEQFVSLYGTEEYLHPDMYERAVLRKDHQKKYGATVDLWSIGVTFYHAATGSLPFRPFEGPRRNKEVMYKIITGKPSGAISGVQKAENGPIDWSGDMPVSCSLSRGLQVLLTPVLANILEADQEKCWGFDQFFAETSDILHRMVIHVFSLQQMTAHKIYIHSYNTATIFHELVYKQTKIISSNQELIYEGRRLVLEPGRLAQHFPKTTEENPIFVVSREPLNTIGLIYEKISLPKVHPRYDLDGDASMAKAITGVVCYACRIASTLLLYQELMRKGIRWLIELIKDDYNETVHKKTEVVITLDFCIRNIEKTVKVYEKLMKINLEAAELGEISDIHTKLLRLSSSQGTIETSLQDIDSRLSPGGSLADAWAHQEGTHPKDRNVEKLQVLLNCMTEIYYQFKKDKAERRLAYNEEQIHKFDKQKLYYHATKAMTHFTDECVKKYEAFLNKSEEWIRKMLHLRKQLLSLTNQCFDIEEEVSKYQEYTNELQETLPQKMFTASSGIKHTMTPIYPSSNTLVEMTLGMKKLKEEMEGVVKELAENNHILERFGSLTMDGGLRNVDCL

[5] = target: Tyrosine-protein kinase BTK (Homo sapiens, UniProt Q06187)
Chain of Tyrosine-protein kinase BTK (Q06187 whole entry): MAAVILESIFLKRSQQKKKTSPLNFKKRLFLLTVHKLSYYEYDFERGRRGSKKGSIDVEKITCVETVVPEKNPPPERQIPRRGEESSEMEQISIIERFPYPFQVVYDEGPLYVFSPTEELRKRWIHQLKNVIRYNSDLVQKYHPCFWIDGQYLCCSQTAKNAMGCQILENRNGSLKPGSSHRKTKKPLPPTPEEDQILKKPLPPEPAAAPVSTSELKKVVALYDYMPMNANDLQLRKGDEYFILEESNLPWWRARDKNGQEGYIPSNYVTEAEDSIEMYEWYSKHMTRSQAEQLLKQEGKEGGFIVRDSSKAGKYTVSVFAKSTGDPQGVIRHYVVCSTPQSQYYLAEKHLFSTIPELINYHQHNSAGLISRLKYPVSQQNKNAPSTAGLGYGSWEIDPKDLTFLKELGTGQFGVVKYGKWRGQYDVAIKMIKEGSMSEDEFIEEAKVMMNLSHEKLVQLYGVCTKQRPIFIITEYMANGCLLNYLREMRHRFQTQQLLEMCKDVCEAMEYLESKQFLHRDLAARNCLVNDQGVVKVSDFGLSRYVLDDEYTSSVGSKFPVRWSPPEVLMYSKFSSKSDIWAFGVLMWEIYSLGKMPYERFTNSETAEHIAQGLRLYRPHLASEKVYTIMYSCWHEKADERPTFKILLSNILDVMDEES

[6] = target: G protein-coupled receptor kinase 5 (Homo sapiens, UniProt P34947); experiment: Navigating the Kinome. Panel member name: GPRK5
Chain of G protein-coupled receptor kinase 5 (P34947 whole entry): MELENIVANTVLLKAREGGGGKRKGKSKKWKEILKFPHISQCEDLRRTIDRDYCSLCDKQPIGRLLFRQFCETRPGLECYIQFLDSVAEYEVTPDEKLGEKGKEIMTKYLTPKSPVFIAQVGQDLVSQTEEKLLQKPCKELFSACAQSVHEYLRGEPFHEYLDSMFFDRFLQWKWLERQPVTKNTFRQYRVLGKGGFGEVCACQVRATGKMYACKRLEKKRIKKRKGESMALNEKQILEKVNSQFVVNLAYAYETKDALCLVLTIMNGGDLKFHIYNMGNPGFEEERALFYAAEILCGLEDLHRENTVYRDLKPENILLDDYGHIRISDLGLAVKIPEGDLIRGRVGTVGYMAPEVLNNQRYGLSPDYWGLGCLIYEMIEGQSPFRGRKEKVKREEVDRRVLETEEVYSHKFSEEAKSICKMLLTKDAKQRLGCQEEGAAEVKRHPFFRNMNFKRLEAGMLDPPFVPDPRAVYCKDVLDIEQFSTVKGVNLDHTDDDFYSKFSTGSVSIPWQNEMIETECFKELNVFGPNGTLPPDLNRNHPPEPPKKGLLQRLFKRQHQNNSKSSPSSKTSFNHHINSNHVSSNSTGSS

[7] = target: Serine/threonine-protein kinase pim-1 (Homo sapiens, UniProt P11309)
[8] = target: Death-associated protein kinase 3 (Homo sapiens, UniProt O43293);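 note: measured as one member of a kinome-wide profiling panel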
[9] = target: Serine/threonine-protein kinase D3 (Homo sapiens, UniProt O94806);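 note: determined within a kinase panel screen, with PRKCN as the panel member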
[10] = target: Dual specificity mitogen-activated protein kinase kinase 2 (Homo sapiens, UniProt P36507); experiment: Navigating the Kinome. Panel member name: MAP2K2
[11] = target: Protein kinase C theta type (Homo sapiens, UniProt Q04759); experiment: Navigating the Kinome. Panel member name: PRKCQ
[12] = target: Tyrosine-protein kinase JAK3 (Homo sapiens, UniProt P52333)
Chain of Tyrosine-protein kinase JAK3 (P52333 whole entry): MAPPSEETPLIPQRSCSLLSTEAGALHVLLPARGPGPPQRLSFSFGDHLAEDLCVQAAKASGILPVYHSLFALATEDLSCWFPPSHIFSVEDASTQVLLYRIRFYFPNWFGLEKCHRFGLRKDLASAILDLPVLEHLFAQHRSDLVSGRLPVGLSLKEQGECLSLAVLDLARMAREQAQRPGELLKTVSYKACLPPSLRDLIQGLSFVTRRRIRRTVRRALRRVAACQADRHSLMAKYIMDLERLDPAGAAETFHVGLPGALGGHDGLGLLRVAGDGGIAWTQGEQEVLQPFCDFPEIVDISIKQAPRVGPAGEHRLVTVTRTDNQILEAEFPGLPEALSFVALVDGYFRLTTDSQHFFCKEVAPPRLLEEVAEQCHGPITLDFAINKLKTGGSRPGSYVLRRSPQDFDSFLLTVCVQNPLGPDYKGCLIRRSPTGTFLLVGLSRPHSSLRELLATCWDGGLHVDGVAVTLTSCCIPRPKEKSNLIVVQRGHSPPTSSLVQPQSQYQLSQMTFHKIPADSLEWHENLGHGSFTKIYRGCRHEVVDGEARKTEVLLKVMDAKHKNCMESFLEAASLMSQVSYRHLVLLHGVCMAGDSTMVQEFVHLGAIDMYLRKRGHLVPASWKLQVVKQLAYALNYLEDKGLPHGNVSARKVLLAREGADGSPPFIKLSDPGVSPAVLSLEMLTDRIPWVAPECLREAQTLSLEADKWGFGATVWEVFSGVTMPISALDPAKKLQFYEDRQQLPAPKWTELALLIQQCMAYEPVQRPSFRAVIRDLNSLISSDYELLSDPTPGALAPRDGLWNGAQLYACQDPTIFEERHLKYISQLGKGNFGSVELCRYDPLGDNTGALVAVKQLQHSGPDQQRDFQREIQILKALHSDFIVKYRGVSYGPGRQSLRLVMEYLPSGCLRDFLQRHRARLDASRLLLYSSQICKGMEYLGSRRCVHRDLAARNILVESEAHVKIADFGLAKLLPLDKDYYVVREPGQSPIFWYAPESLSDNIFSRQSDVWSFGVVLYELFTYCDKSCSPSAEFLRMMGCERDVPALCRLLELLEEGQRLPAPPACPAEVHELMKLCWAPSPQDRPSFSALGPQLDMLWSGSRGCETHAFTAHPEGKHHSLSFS

[13] = target: Inhibitor of nuclear factor kappa-B kinase subunit epsilon (Homo sapiens, UniProt Q14164); experiment: Navigating the Kinome. Panel member name: IKBKE
Chain of Inhibitor of nuclear factor kappa-B kinase subunit epsilon (Q14164 whole entry): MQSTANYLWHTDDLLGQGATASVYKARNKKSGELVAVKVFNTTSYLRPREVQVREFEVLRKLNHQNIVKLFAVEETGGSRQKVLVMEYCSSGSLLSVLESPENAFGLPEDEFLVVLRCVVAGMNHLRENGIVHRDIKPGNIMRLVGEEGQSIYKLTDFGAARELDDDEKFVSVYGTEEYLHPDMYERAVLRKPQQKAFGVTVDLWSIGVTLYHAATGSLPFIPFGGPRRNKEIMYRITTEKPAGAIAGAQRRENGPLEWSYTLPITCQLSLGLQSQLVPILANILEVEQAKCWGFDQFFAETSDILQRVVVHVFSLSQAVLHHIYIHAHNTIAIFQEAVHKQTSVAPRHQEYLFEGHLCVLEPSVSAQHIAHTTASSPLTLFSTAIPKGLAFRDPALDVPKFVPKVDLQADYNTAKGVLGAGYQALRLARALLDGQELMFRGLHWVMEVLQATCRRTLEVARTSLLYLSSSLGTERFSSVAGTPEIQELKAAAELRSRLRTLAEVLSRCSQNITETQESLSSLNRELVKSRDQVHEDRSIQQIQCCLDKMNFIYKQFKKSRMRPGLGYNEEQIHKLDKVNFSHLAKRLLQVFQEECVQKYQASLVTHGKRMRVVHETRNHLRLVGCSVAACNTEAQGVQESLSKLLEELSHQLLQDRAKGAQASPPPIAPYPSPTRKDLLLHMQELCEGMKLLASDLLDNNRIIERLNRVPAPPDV

[14] = target: Macrophage colony-stimulating factor 1 receptor (Homo sapiens, UniProt P07333);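 note: value comes from the Navigating the Kinome screening panel, CSF1R member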
[15] = target: cAMP-dependent protein kinase catalytic subunit alpha (Homo sapiens, UniProt P17612)

SMILES | IC50 [1] | Ki [2] | Ki [3] | Ki [4] | Ki [5] | Ki [6] | Ki [7] | Ki [8] | Ki [9] | Ki [10] | Ki [11] | Ki [12] | Ki [13] | Ki [14] | Ki [15]
Cc1ccnc2ccc(-c3nc4ccccc4o3)cc12 | 1.1 µM (active) |  |  |  |  |  |  |  |  |  |  |  |  |  | 
O=C(NCCc1cccs1)N1CC=C(c2c[nH]c3ncccc23)CC1 |  | > 2.51 µM (inactive) | 0.158 µM (active) | > 3.16 µM (inactive) | > 6.31 µM (inactive) | > 3.98 µM (inactive) | 3.98 µM (active) | 3.98 µM (active) | > 3.98 µM (inactive) | 3.16 µM (active) | > 2.51 µM (inactive) | > 5.01 µM (inactive) | > 3.16 µM (inactive) | > 2.51 µM (inactive) | 0.0631 µM (active)
